Tests used:
Type in all cases: biochemical
PDE1A = PDE1A (Homo sapiens (Human), UniProt P54750); experiment: PDE1 inhibition assay, PDE1A; conditions: for IC50: 15 nM tritium labelled cAMP
Experimental: (§1) Reactions were initiated by addition of the cyclic nucleotide substrate, and reactions were allowed to proceed for 1 h at room temperature before being terminated through mixing with 20 μL (0.2 mg) yttrium silicate SPA beads (PerkinElmer).

PDE1B = PDE1B (Homo sapiens (Human), UniProt Q01064); experiment: PDE1 inhibition assay, PDE1B; conditions: 15 nM tritium labelled cAMP
Chain of PDE1B (Q01064 whole entry): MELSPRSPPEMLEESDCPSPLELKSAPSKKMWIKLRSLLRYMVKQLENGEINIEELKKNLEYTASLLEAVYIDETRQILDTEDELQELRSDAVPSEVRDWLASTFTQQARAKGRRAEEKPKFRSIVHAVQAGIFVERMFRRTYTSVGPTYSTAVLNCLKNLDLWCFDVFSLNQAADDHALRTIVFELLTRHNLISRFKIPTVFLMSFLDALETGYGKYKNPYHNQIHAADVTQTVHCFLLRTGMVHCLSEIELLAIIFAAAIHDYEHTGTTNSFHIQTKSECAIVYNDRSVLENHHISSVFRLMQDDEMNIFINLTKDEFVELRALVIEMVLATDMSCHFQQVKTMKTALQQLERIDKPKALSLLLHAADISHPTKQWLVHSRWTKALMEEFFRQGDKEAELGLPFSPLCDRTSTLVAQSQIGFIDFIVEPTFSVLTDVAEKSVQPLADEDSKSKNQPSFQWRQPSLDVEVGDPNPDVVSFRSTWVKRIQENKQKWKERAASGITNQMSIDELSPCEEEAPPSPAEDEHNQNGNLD
Experimental: as §1, with “(PerkinElmer). The beads were allowed to settle for 1 h in the dark before the plates were counted in a Wallac 1450 Microbeta counter.” for “(PerkinElmer).”

PDE1C = PDE1C (Homo sapiens (Human), UniProt Q14123); experiment: PDE1 inhibition assay, PDE1C; conditions: for IC50: 15 nM tritium labelled cAMP
Chain of PDE1C (Q14123 whole entry): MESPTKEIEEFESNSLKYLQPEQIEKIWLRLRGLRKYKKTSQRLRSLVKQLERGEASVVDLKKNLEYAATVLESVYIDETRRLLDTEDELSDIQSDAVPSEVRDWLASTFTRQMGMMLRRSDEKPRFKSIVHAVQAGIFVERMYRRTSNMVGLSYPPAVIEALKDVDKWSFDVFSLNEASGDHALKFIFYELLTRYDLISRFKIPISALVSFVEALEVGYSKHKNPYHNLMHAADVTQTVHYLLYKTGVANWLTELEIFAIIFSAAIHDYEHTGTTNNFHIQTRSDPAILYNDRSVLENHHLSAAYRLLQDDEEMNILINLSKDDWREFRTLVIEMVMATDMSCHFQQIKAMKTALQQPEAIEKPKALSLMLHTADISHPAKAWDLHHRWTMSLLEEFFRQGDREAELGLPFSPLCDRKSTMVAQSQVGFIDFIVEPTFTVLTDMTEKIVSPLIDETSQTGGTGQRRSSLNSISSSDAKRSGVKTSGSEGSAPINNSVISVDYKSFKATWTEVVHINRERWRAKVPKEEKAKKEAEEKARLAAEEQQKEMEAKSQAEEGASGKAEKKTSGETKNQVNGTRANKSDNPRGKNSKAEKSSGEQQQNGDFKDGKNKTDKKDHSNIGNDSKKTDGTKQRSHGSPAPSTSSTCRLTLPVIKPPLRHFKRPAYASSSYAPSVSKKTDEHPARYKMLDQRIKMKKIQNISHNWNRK
Experimental: as §1, with “(PerkinElmer). The beads were allowed to settle for 1 h in the dark before the plates were counted in a Wallac 1450 Microbeta counter.” for “(PerkinElmer).”

PDE9 = PDE9 (Homo sapiens (Human), UniProt O76083); experiment: PDE9 inhibition assay
Chain of PDE9 (O76083 whole entry): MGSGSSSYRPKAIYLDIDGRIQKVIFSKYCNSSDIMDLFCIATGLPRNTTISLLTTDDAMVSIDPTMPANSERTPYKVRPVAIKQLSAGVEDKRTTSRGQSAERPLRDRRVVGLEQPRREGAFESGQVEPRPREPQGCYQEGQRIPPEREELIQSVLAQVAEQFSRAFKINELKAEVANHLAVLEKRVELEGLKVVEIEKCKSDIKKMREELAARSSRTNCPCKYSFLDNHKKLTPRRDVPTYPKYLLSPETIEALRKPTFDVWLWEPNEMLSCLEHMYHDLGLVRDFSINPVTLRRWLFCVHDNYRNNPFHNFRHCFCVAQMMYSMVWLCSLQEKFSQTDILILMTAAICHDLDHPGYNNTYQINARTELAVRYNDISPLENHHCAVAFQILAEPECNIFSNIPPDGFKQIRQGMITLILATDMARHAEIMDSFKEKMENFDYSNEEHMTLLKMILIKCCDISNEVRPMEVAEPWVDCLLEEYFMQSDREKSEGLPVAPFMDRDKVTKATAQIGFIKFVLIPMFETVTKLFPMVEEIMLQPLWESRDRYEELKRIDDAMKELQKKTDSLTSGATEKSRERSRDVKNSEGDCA
Experimental: A PDE9 assay may for example, be performed as follows: The assay is performed in 60 μL samples containing a fixed amount of the relevant PDE enzyme (sufficient to convert 20-25% of the cyclic nucleotide substrate), a buffer (50 mM HEPES7.6; 10 mM MgCl2; 0.02% Tween20), 0.1 mg/ml BSA, 225 pCi of ^3H-labelled cyclic nucleotide substrate, tritium labeled cAMP to a final concentration of 5 nM and varying amounts of inhibitors. Reactions are initiated by addition of the cyclic nucleotide substrate, and reactions are allowed to proceed for one hr at room temperature before being terminated through mixing with 15 μL 8 mg/mL yttrium silicate SPA beads (Amersham). The beads are allowed to settle for one hr in the dark before the plates are counted in a Wallac 1450 Microbeta counter.
In the context of the present invention the assay was performed in 60 μL assay buffer (50 mM HEPES pH 7.6; 10 mM MgCl2; 0.02% Tween20) containing enough PDE9 to convert 20-25% of 10 nM ^3H-cAMP and varying amounts of inhibitors. Following a 1 hr incubation the reactions were terminated by addition of 15 μL 8 mg/mL yttrium silicate SPA beads (Amersham). The beads were allowed to settle for one hr in the dark before the plates were counted in a Wallac 1450 Microbeta counter.

Chain of PDE1A (P54750 whole entry): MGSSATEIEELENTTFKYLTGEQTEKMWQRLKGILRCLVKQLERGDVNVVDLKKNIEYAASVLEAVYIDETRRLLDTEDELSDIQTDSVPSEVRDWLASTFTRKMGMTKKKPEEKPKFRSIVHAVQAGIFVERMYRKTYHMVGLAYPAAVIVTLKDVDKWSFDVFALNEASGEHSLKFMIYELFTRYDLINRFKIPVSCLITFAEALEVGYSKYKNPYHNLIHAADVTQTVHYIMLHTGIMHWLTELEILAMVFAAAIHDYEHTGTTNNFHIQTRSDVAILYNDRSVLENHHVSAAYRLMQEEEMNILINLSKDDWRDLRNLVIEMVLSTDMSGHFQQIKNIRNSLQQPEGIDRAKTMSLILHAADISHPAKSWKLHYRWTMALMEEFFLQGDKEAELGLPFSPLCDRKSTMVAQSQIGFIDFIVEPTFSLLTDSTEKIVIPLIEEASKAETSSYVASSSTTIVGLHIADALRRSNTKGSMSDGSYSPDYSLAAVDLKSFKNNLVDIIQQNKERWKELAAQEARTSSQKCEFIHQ

SMILES	IC50 (PDE1A)	IC50 (PDE1B)	IC50 (PDE1C)	inhibition at 10 µM (PDE9)	inhibition at 1 µM (PDE1A; read-out: PDE1A, % inhibition (at 1 μM))	inhibition at 1 µM (PDE1C; read-out: PDE1C, % inhibition (at 1 μM))	% inhibition of PDE9 at 10 microM (PDE9; at 10 microM)
Cc1cn2c(C3CCOCC3)ncc2c(=O)n1Cc1ccc(OCC2CC2)cc1 [Example 42, 7-(4-(cyclopropylmethoxy)benzyl)-6-methyl-3-(tetrahydro-2H-pyran-4-yl)imidazo[1,5-a]pyrazin-8(7H)-one]		155 nM		15%	50%	55%	
Cc1cn2c(C3CCOCC3)ncc2c(=O)n1Cc1ccccc1 [Example 16, 7-Benzyl-6-methyl-3-(tetrahydro-2H-pyran-4-yl)imidazo[1,5-a]pyrazin-8(7H)-one]	85 nM	57 nM	12 nM	19%			
Cc1cn2c(C3CCOCC3)ncc2c(=O)n1CC1CCCC1 [Example 63, 7-(cyclopentylmethyl)-6-methyl-3-(tetrahydro-2H-pyran-4-yl)imidazo[1,5-a]pyrazin-8(7H)-one]	183 nM	82 nM	17 nM	-3%			
Cc1cn2c(C3CCOCC3)ncc2c(=O)n1CCC(C)C [Example 62, 7-isopentyl-6-methyl-3-(tetrahydro-2H-pyran-4-yl)imidazo[1,5-a]pyrazin-8(7H)-one]	1080 nM	558 nM	93 nM	7%			
Cc1cn2c([C@]3(C)CCOC3)ncc2c(=O)n1Cc1cccc(F)c1 (single isomer, unassigned; isomer 1) [32, isomer 1]	257 nM	122 nM	22 nM				−1%

Now those with a lower IC50 (PDE1B), led by results:

IC50 (PDE1A)	IC50 (PDE1B)	IC50 (PDE1C)	inhibition at 10 µM (PDE9)	inhibition at 1 µM (PDE1A; read-out: PDE1A, % inhibition (at 1 μM))	inhibition at 1 µM (PDE1C; read-out: PDE1C, % inhibition (at 1 μM))	% inhibition of PDE9 at 10 microM (PDE9; at 10 microM)	SMILES
29 nM	17 nM	28 nM	-11%				COc1ccc(Cn2c(C)cn3c([C@@]4(C)C[C@@H]5CC[C@H]4O5)ncc3c2=O)cc1 [Example 70, 7-(4-methoxybenzyl)-6-methyl-3-((1R,2R,4S)-2-methyl-7-oxabicyclo[2.2.1]heptan-2-yl)imidazo[1,5-a]pyrazin-8(7H)-one]
10 nM	6 nM	5 nM	11%				Cc1cn2c(C3CCOCC3)ncc2c(=O)n1CC1CCCCCC1 [Example 65, 7-(cycloheptylmethyl)-6-methyl-3-(tetrahydro-2H-pyran-4-yl)imidazo[1,5-a]pyrazin-8(7H)-one]
122 nM	44 nM	126 nM	-14%				COCC(C)(C)c1ncc2c(=O)n(Cc3ccc(OC)cc3)c(C)cn12 [Example 76, 3-(1-methoxy-2-methylpropan-2-yl)-7-(4-methoxybenzyl)-6-methylimidazo[1,5-a]pyrazin-8(7H)-one]
34 nM	15 nM	23 nM	10%				COc1ccc(Cn2c(C)cn3c(C(C)c4nc(C)cs4)ncc3c2=O)cc1 (stereo not drawn) [Example 90, 7-(4-methoxybenzyl)-6-methyl-3-(1-(4-methylthiazol-2-yl)ethyl)imidazo[1,5-a]pyrazin-8(7H)-one]
30 nM	21 nM	16 nM	12%				O=c1c2cnc(C3CCOCC3)n2ccn1CC1CCCCCC1 [Example 12, 7-(Cycloheptylmethyl)-3-(tetrahydro-2H-pyran-4-yl)imidazo[1,5-a]pyrazin-8(7H)-one]
8 nM	12 nM	6 nM	-6%				O=c1c2cnc(C3CCOCC3)n2cc(Cc2ccccc2)n1CC1CCCCC1 [Example 3, 6-Benzyl-7-(cyclohexylmethyl)-3-(tetrahydro-2H-pyran-4-yl)imidazo[1,5-a]pyrazin-8(7H)-one]
62 nM	53 nM	12 nM	23%				CCc1cn2c(C3CCOCC3)ncc2c(=O)n1Cc1cccc(F)c1 [Example 54, 6-ethyl-7-(3-fluorobenzyl)-3-(tetrahydro-2H-pyran-4-yl)imidazo[1,5-a]pyrazin-8(7H)-one]
